Results on twelve compounds are retold here after US20050182020A1, “Ceramide de novo synthesis-based therapeutic and prophylactic methods, and related articles of manufacture” (priority 2003, published 2005).

The subject of test [1] is SRE-mediated gene transcription. The test can be described thus: SRE-promoter luciferase reporter gene assay in stably transfected CHO cells. The note with it: for SRE-mediated gene transcription (luciferase RLU/protein): myriocin 1 μM, cycloserine 500 mM, fumonisin B1 10 μM, PPMP 20 μM, NB-DNJ 40 μM, cholesterol/25-OH cholesterol 10/1 μg/ml, vs 1% BSA. The test is classed as cell-based, Chinese hamster. The protocol:
FIG. 3. Inhibition of ceramide synthesis and SRE-mediated gene transcription. (A) Decreased ceramide synthesis correlates with decreased levels of SRE-mediated gene transcription and mSREBP. […] After cell lysis, luciferase activity was analyzed, and expressed as a ratio of protein content. Data represent the average (±S.D.) of at least 4 different experiments, each performed in triplicate. […] CHO cells stably transfected with an SRE-promoter construct linked to the luciferase reporter gene were incubated for 8 h in the presence of control conditions (1% BSA) or increasing levels of myriocin (0.25-1 μM). After cell lysis, luciferase activity was analyzed, expressed as a ratio of protein content. Data represent the average (±S.D.) of at least 3 different experiments, each performed in triplicate.
FIG. 4. Increased ceramide synthesis and SRE-mediated gene transcription. (A) Increased ceramide de novo synthesis correlates with increased SRE-mediated gene transcription. On day 1, CHO cells stably transfected with an SRE-promoter construct linked to the luciferase reporter gene were plated at 80% confluency. […] Cells were harvested, lysed and analyzed for luciferase activity (measured in relative light units, RLU) and protein content. Data are expressed as percentage of control and represent the average (±S.D.) of three different experiments, each performed in triplicate. Inset: Western blot analysis: On day 1, CHO cells were plated in regular growth medium. On day 2, cells were incubated for 8 h with control medium (1% BSA) or DMS (5 μM). Whole cell extracts (30 μg protein) were loaded on a 4-14% continuous gradient SDS-PAGE gel. P and M denote the precursor (125 kd) and mature (68 kd) form of SREBP-1 in a representative experiment. (B) DMS increases ceramide de novo synthesis. CHO cells were treated for 3.5 h either with control conditions (1% BSA) or DMS (2.5-5 μM). […] Data are expressed as dpm/protein and represent a typical experiment.
(§1) FIG. 5. LY-B cells fail to recover SRE-mediated gene transcription in cholesterol depletion but recover SRE-mediated gene transcription in the presence of DMS. […] Both cell lines have been transfected to stably express an SRE-promoter construct linked to the luciferase reporter gene. On day 2, cells were incubated for 16 h with 1% BSA (control) or in the presence of cholesterol (10 μg/ml) and 25-OH cholesterol (1 μg/ml) to decrease SRE-mediated gene transcription. Then, incubation medium was switched to 1% BSA or DMS (5 μM) for 6 h. After cell lysis, luciferase activity was analyzed, expressed as a ratio of protein content. Data represent the average (±S.D.) of at least 4 different experiments, each performed in triplicate.
Cell culture and stable transfections: Cells were grown in F12-nutrient mixture medium containing 10% fetal bovine serum (FBS), 1% glutamine (v/v), 1% penicillin/streptomycin (v/v), and 10% fetal bovine serum (v/v) at 37° C. in humidified CO2 (5%). To obtain stable transfectants, cells were plated in 12-well plates at 50% confluency and transfected for 5 h in the presence of serum-free Dulbecco's modified Eagle's medium (DMEM) with pSyn SRE (1 μg/well) and pWLNeo (0.25 μg/well) using Lipofectamin (1.5 μl/well). Cells were then incubated for 2 days in growth medium. On day three, neomycin-containing medium (400 μg/ml) was added. Selection for neomycin resistant colonies was continued for three weeks. Pooled clones were analyzed for luciferase expression. Experiments were performed with pooled clones as well as with cells derived from a single clone. Cells were grown in the presence of 400 μg/ml neomycin. For experimental use, cells were plated in the absence of neomycin at least 24 h ahead in regular growth medium.
Enzyme assays: Cells to be analyzed for luciferase activity were lyzed in lysis buffer A containing 0.1% Triton X-100, 50 mM Hepes, 10 mM MgSO4, pH 7.7. Cells were scraped, collected, vortexed and briefly centrifuged to pellet cell debris. […]
On the technique in general: A reporter such as luciferase makes a cellular process visible.

Another test concerns HMG-CoA synthase mRNA. The note with it: previously shown (ref. 10); cited from earlier work.
Test [2] has as its system SRE-mediated gene transcription. The test can be described thus: SRE-promoter luciferase reporter gene assay in LY-B cells (CHO cells mutated in LCB1 subunit of serine-palmitoyl transferase). Particulars: preliminary data. The test is classed as cell-based, Chinese hamster. Here is the method:
as §1
Enzyme assays: Cells to be analyzed for luciferase activity were lyzed in lysis buffer A containing 0.1% Triton X-100, 50 mM Hepes, 10 mM MgSO4, pH 7.7. Cells were scraped, collected, vortexed and briefly centrifuged to pellet cell debris. An aliquot was used to measure luciferase activities in a luminometer (Berthold LB 9501, Wallac Inc., Gaithersburg, Md.) with a luciferin reagent from Promega (Madison, Wis.). Luciferase activity in relative light units (RLU) was divided by protein content (mg/ml) for each extract. […]

The test system of a further test is HSN1 cells (4561). The test can be described thus: Cholesterol / cholesterylester synthesis from 3H-mevalonate in HSN1 cells. Format: cell-based, human. The note with it: 16 h, 3H-mevalonate. The protocol: FIG. 12. Increased free cholesterol synthesis in HSN cells. In order to investigate whether increased SRE-mediated gene transcription also results in increased cholesterol synthesis cells were incubated with radioactive mevalonate, a precursor which represents a committed step in cholesterol synthesis (see FIG. 11). Control and HSN1 cells were incubated for 7 h and 18 h in the presence of trace amounts of ^3H-mevalonate. Lipids were extracted and separated by thin […] chromatography (TLC). Radioactive counts in the cholesterol fraction were analyzed by liquid scintillation counting.
FIG. 14. Oleic acid increases HSN 4561 synthesis of high levels of free cholesterol but not cholesteryl ester. Cells were incubated for 4 h with ^3H-mevalonate and grown in the presence or absence of 0.3 mM oleic acid.
FIG. 16. Incubation with mevastatin decreases free cholesterol synthesis in HSN cells as well as in controls. Cells were treated for 16 h in the presence of ^3H-mevalonate to assess cholesterol de novo synthesis and several inhibitors of either cholesterol or ceramide synthesis (Mevastatin=Statin), C6 ceramide (previously shown by us to decreased SREBP levels and SRE-mediated gene transcription), cycloserine (inhibitor of serine-palmiltoyl transferase), cholesterol (classical inhibitor of de novo synthesis by negative feedback).

A further test relates to SREBP-1. The test can be described thus: Western blot analysis of precursor and mature SREBP-1 in CHO cells. The note with it: C6-ceramide 20 μM, 4 h and 8 h, vs controls. The test is classed as cell-based, Chinese hamster. The protocol: FIG. 2. C6-ceramide increases pSREBP levels. On day 1, CHO cells were plated in regular growth medium. On day 2, cells were incubated for 4 and 8 h with 1% BSA (control) or in the presence of C6-ceramide (20 μM). Whole cell extracts (30 μg protein) were loaded on a 4-14% continuous gradient SDS-PAGE gel. P denotes the precursor (125 kd) form of SREBP-1 in a representative experiment. C6 ceramide increases the precursor form of SREBP-1 and decreases the mature form of SREBP-1. […] The blot is representative of experiments carried out with ceramide analogues of different chain length. Densitometric results were obtained by analyzing pixels/inch (corrected for actin) and expressed relative to control.
FIG. 4. Increased ceramide synthesis and SRE-mediated gene transcription. (A) Increased ceramide de novo synthesis correlates with increased SRE-mediated gene transcription. […] Cells were harvested, lysed and analyzed for luciferase activity (measured in relative light units, RLU) and protein content. Data are expressed as percentage of control and represent the average (±S.D.) of three different experiments, each performed in triplicate. […] Data are expressed as dpm/protein and represent a typical experiment.
Western blot analysis: Cells were plated on day one in regular growth medium. […] Densitometric quantification was carried out using Scion Image beta 4.02 software (www.scioncorp.com). […]
On the technique in general: Immunoblotting shows a protein as a band on a membrane.

The test system of test [3] is SRE-mediated gene transcription. Briefly: SRE-mediated gene transcription, Part II inhibitors of sphingolipid synthesis and DAG generation. Further details: SRE-mediated gene transcription inhibited to: unit of the concentration uncertain. Format: cell-based. Here is the method: Reduction of de novo sphingolipid synthesis: Incubation with methylthiodihydroceramide (10 μM) for 6 h reduces SRE-mediated gene transcription to 40%. Methylthiodihydroceramide was received from Gerhild van Echten-Deckert (1). Reduction of de novo sphingolipid biosynthesis by 1-methylthiodihydroceramide is due to its ability to deplete cells of newly formed free sphinganine.
Inhibition of sphingomyelin synthesis: The D609 compound is a xanthate and inhibitor of sphingomyelin synthase. It is a mixture of several isoforms (2). Experiments were carried out with five defined isomers of D609 received via Gemma Fabrias (Dept. of Biological Organic Chemistry, Barcelona, Spain) (Table 1). […] A concentration curve of 10, 20 and 40 μg/ml was tested over 5 h.
Data: Propanolol ([…]) inhibits SRE-mediated gene transcription to 40% (+3%) within 30 min. Resvaratrol ([…]) inhibits SRE-mediated gene transcription to 7% (±16%) within 4 h.

Test [4] relates to Niemann Pick Disease Type A fibroblasts. Briefly: Ceramide de novo synthesis (3H-serine) in NPA fibroblasts. The test is classed as cell-based. The note with it: overnight incubation with agent, vs 1% BSA. Here is the method: FIG. 19. Ceramide synthesis is increased in NPA fibroblasts. Fibroblasts from different control individuals and from two different cell lines derived from Niemann Pick Disease Type A were incubated for 4 h in the presence of ^3H-serine to measure de novo ceramide synthesis after having been incubated overnight in either control medium (1% BSA) or in the presence of cholesterol or C8-Ceramide. Lipid extraction and separation were carried out.

On to `CCCCCCCCCCCCC/C=C/[C@@H](O)[C@@H](N)CO` [Sphingosine], for which, in test [1] (sphingosine 1.5 μM, 8 h), the “increase of SRE-mediated gene transcription” value is given as “up to two-fold”. On to ceramide, for which the “SRE-mediated gene transcription on addition of ceramide” value in test [1] (under the experimental conditions of FIG. 3, data not shown) was “did not increase”. Further, in the test with HMG-CoA synthase mRNA, the “mRNA levels of HMG-CoA synthase” value is given as “decrease”. In test [2], the “SRE-mediated gene transcription in LYB-cells incubated with ceramide” value is listed as “did not decrease”. Turning to “D-erythro hexanoylsphingosine [C6-ceramide]”, the “sensitivity of cholesterol de novo synthesis in HSN1 cells (4561) relative to control cells” value in the test on HSN1 cells (4561) is recorded as “more sensitive”. For the same compound, in the test with SREBP-1, the “cellular levels of pSREBP” value is on record as “increased” and the “levels of mSREBP” value is “decreased”.

For AG10, the “Reduction of SRE-mediated gene transcription(40 μg/ml)” value in test [3] (40 μg/ml, 5 h) was 52% (±11%). Regarding `CCCCCCCCCCCCCC(=O)N[C@H](C)[C@@H](O)c1ccccc1` [D-MAPP, (1S,2R)-D-erythro-2-(N-Myristoylamino)-1-phenyl-1-propanol], the “mRNA levels of HMG-CoA synthase” value with HMG-CoA synthase mRNA is “decrease”. Take 1-methylthiodihydroceramide: the “SRE-mediated gene transcription reduced to” value in test [3] (10 μM, 6 h) is reported as 40%.

Regarding `CCCCCCCCCCCCCCCC(=O)NC(CN1CCOCC1)C(O)c1ccccc1.Cl` (racemic) [PPMP, DL-threo-1-Phenyl-2-palmitoylamino-3-morpholino-1-propanol HCL], the “SRE-mediated gene transcription (luciferase RLU/protein)” value in test [1] (8 h) was “significantly reduce”. The same measure, in the same setting: as for `N[C@@H]1CON=C1O` [cycloserine], the entry is “significantly reduced”. As for `CC(C)NCC(O)COc1cccc2ccccc12` (stereo not shown) [Propanolol], in test [3] (250 (unit uncertain), within 30 min), the “SRE-mediated gene transcription inhibited to” value is 40% (+3%). Turning to `CCCCN1C[C@H](O)[C@@H](O)[C@H](O)[C@H]1CO.Cl` [NB-DNJ, N-Butyldeoxynojirimycin-HCL], the “SRE-mediated gene transcription (luciferase RLU/protein)” value in test [1] (8 h) is on record as “does not affect”. For `CCCCCCCCCCCCC/C=C/[C@@H](O)[C@H](CO)NC(=O)CCCCCCC` [C8-ceramide, D-erythro N-octanoylsphingosine], in test [4], the “ceramide de novo synthesis (3H-serine, 4 h)” value is on record as “significantly decreases”. With `Oc1ccc(C=Cc2cc(O)cc(O)c2)cc1` [Resvaratrol, resveratrol], in test [3] (300 (unit uncertain), within 4 h), the “SRE-mediated gene transcription inhibited to” value was 7% (±16%).
